Assay results: publication PMC8909805, “Anticancer Activity of (S)-5-Chloro-3-((3,5-dimethylphenyl)sulfonyl)-N-(1-oxo-1-((pyridin-4-ylmethyl)amino)propan-2-yl)-1H-indole-2-carboxamide (RS4690), a New Dishevelled 1 Inhibitor” (Cancers, 2022)
Entries after “also recorded” stand apart in the source; their conditions may differ.

Legend:
HCT116 cells [1] = test: Cell growth inhibition, MTT assay, HCT116; format: cell-based; conditions: Homo sapiens, HCT-116; incubation time 48 h; cells express wild-type APC
Experimental: (§1) Cell viability was evaluated by XTT [35] (SW480 and SW620 cells) or MTT [36] (HEK293 and HCT116 cells) colorimetric assays. Briefly, cells (range 10–30 × 10^3 cells/well) were seeded in 96-well microculture plates and then exposed to increasing concentrations of different compounds (range 0–300 µM) for 48 or 72 h. At the end of the treatment, media were removed and incubated at 37 °C in the dark for 4 h in phosphate-buffered saline (PBS) containing 0.2 mg/mL of sodium 3′-[1-[(phenylamino)-carbonyl]-3,4-tetrazolium]-bis(4-methoxy-6-nitro)benzene-sulfonic acid hydrate (XTT) (Thermo Fisher Scientific, Waltham, MA, USA) or (3-[4,5-dimethylthiazol-2-yl]-2,5 diphenyl tetrazolium bromide (MTT) (Merck, Kenilworth, NJ, USA) and phenazine methosulfate (PMS) at a final concentration of 25 µM. Absorbance at 450 nm and a reference wavelength of 650 nm was then measured using a microplate spectrophotometer (Multiskan FC Microplate Photometer, Thermo Scientific, Waltham, MA, USA). The cell growth inhibition rate was calculated utilizing the following formula: inhibition rate (%) = […], where Control OD is absorbance of negative control and Sample OD is absorbance of the test sample. The IC50 values were determined with GraphPad Prism 5 through constructed dose-response curves.
(§2) In vitro cultures of colon cancer cells often present mutations either in the APC gene or in the β-catenin gene. […] Two of these cell lines, colon cancer SW480 and SW620 cells, were used in dose-response experiments. […] We thus tested their growth inhibitory activity on the colon cancer cell line HCT116. In terms of APC and β-catenin, these represent the wt counterparts of SW480 and […]. HCT116 cells express wt APC and are heterozygous for β-catenin, harboring one wild type and one mutant (Ser45del) allele. WNT pathway activity and the survival of HCT116 cells thus depend on DVL and can be affected by FZD and DVL inhibitors. […]

NHERF1 PDZ1 domain = target: T1, NHERF1 PDZ1 domain (Homo sapiens, UniProt O14745); test: Inhibition of the NHERF1 PDZ1 domain; format: binding; conditions: data not shown
T1 sequence (O14745 14-94 limits assumed): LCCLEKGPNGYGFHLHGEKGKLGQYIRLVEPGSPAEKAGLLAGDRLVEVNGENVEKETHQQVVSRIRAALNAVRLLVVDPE

DVL1 PDZ domain = target: T2, DVL1 PDZ domain (Homo sapiens, UniProt O14640); test: Equilibrium (FRET) competition binding between DVL1 PDZ domain and dansylated TMEM88 C-terminal peptide; conditions: compound at 5 µM
T2 sequence (O14640 251-323 limits assumed): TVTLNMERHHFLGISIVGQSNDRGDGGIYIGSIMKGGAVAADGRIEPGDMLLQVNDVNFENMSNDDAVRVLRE
Experimental: Equilibrium binding experiments were performed on a Fluoromax-4 single photon counting spectrofluorometer (Jobin-Yvon, NJ, USA). The buffer used was sodium phosphate 50 mM, DMSO 20% v/v, pH 7.2, and the temperature was set at 25 °C. […] Experiments were performed in the absence and in the presence of 1 µM and 5 µM constant concentration of (S)-2 or (R)-1 enantiomers. Normalized fluorescence collected at 540 nm was fitted using a hyperbolic function.

SW480 cells = test: Cell growth inhibition, XTT assay, SW480; format: cell-based; conditions: Homo sapiens, incubation time 72 h
Experimental: as §1, §2

WNT/β-catenin pathway = test: Inhibition of TCF/LEF (WRE-GFP reporter) activity in HEK293 cells expressing HA-FZD4; format: cell-based; conditions: Homo sapiens, HEK293, 48 h, 48 h treatment, read-out: EC50 ± SD WNT Pathway Inhibition
Experimental: Briefly, Hek293 cells were seeded on black 96-well Optiplates (PerkinElmer, Waltham, MA, USA) at a density of 5 × 10^3/well. After seeding for 16–24 h, cells were co-transfected with the cDNA coding for HA-FZD4 (0.04 µg/well) as well as with the reporter construct WRE-GFP (0.04 µg/well) using Lipofectamine. Hek293 cells were plated and treated with different dilutions of compounds 2, (S)-2 or (R)-1 for 48 h before being fixed and analyzed under a fluorescence microscope. Inhibition of WRE activity was measured by counting the percentage of GFP positive cells. Experiments were performed in triplicate and the standard deviations are indicated.
The activity of the compounds was further assayed in HEK293 cells transiently expressing both HA-FZD4 and the WNT reporter construct WRE-GFP (25). The latter presents the coding sequence of GFP under the control of an optimized WNT responsive element (WRE-wt). When WRE-GFP is transiently transfected in cells, it promotes GFP transcription and translation. The amount of GFP produced by each cell (and thus overall cell-fluorescence) depends on the intracellular levels of WNT pathway activity (Figure 5).

SW620 cells = test: Cell growth inhibition, XTT assay, SW620; format: cell-based; conditions: Homo sapiens, SW-620; incubation time 72 h
Experimental: as §1, §2

HCT116 cells [2] = test: ROS quantification with DCFDA probe in HCT116 cells; format: cell-based, human; conditions: 48 h treatment, increasing concentrations; % of DMSO control
Experimental: HCT116 cells were grown in RPMI-1640 medium (Corning) containing 2 mM L-glutamine and supplemented with 100 IU/mL penicillin/streptomycin and 10% fetal bovine serum (FBS; Sigma-Aldrich, St Louis, MO, USA). HCT116 cells were treated in 96-well-black plates for 48 h with increased concentrations of […]. Quantification of ROS production was measured using 20 μM of the fluorescent probe 2′,7′-dichlorodihydrofluorescein diacetate DCFDA (Sigma Aldrich). The relative fluorescence emission was followed at 520 nm using VICTOR plate reader (VICTOR™ Multilabel Counter, Perkin Elmer) and was normalized to total protein content using BCA test. Total ROS production was presented as percentage with respect to the control (DMSO treated cells) that was set as 100%. Statistical analysis was performed using one-way ANOVA followed by the Bonferroni post hoc comparison test. p < 0.05 was considered significant. Data are representative of three independent experiments with similar results.
Reactive oxygen species (ROS) play important roles in cell growth and differentiation, metabolism and apoptosis. […] We measured the ability of compounds (S)-1 and (R)-1 to generate ROS in HCT116 cells using the fluorescent probe 2′,7′-dichlorodihydrofluorescein diacetate DCFDA. The ROS production (%) upon 48 h treatment was determined with increasing concentrations of (S)-1 or (R)-1. […]

| SMILES | EC50 (HCT116 cells [1]) [µM] | Inhibition of NHERF1 PDZ1 domain (NHERF1 PDZ1 domain) | Effect on binding between DVL1 PDZ and TMEM88 peptide (DVL1 PDZ domain) | EC50 (SW480 cells) [µM] | EC50 (WNT/β-catenin pathway) [µM] | EC50 (SW620 cells) [µM] | ROS production (HCT116 cells [2]) |
| --- | --- | --- | --- | --- | --- | --- | --- |
| Cc1cc(C)cc(S(=O)(=O)c2c(C(=O)N[C@H](C)C(=O)NCc3ccncc3)[nH]c3ccc(Cl)cc23)c1 [(R)-1] | 28.3 ± 1.2 | did not show inhibitory activity; also recorded: did not bind | abolished the binding | 59.5 ± 2.1 | 19.49 ± 0.06 | 54.8 ± 1.9 | – |
| Cc1cc(C)cc(S(=O)(=O)c2c(C(=O)N[C@@H](C)C(=O)NCc3ccncc3)[nH]c3ccc(Cl)cc23)c1 [(S)-1, (S)-5-Chloro-3-((3,5-dimethylphenyl)sulfonyl)-N-(1-oxo-1-((pyridin-4-ylmethyl)amino)propan-2-yl)-1H-indole-2-carboxamide] | 7.1 ± 0.6 | did not show inhibitory activity; also recorded: did not bind | abolished the binding | 55 ± 2.2 | – | 45.9 ± 2 | high level of ROS production; also recorded: superior to (R)-1 at any tested compound concentration; also recorded: higher level of ROS production |
| Cc1cc(C)cc(S(=O)(=O)c2c(C(=O)NC(C)C(=O)NCc3ccncc3)[nH]c3ccc(Cl)cc23)c1 (stereo not shown) [Compound 1] | 15.2 ± 1.1 | – | – | 39.2 ± 1.58 | 3.46 ± 0.07 | 38.5 ± 1.6 | – |
